Data reported in patent US20250026724A1, “(1,4,5-TRISUBSTITUTED 1H-PYRAZOL-3-YL)OXY-2-ALKYLTHIOALKYL ACIDS AND -ALKYL ACID DERIVATIVES, SALTS THEREOF AND USE THEREOF AS ACTIVE HERBICIDAL INGREDIENTS” (BAYER AKTIENGESELLSCHAFT, priority 2021, published 2025).

What was measured:
Test in all cases: Post-emergence herbicidal action, greenhouse pot trial
Assay type in all cases: in vivo
Avena fatua (AVEFA) = settings: 320 g/ha, visual rating after about 3 weeks; for pest or weed control at 320 g/ha: Avena fatua, 504 h, read-out: Post-emergence effect at 320 g/ha against AVEFA in %
Description: (§1) Seeds of monocotyledonous and dicotyledonous weeds and crop plants are placed in sandy loam in plastic or organic planting pots, covered with soil and cultivated in a greenhouse under controlled growth conditions. 2 to 3 weeks after sowing, the trial plants are treated at the one-leaf stage. The compounds of the invention, formulated in the form of wettable powders (WP) or as emulsion concentrates (EC), are then sprayed onto the green parts of the plants as aqueous suspension or emulsion with addition of 0.5% additive at a water application rate equivalent to 600 l/ha. After about 3 weeks of keeping the trial plants in the greenhouse under optimum growth conditions, the effect of the preparations is rated visually in comparison to untreated controls. For example, 100% activity=the plants have died, 0% activity=like control plants.
(§2) Tables B1 to B14 below show the effects of selected compounds of the general formula (I) according to Table 1 on various harmful plants and at an application rate corresponding to 320 g/ha or lower, which were obtained by the trial procedure specified above. The appendices “a”, “b” and “c” give differentiation by dosage used with otherwise the same harmful plants tested.
(§3) As shown by results from Tables B1 to B19, inventive compounds of the general formula (I) in the case of post-emergence treatment have good herbicidal efficacy against harmful plants, for example Abutilon theophrasti (ABUTH), Alopecurus myosuroides (ALOMY), Amaranthus retroflexus (AMARE), Avena fatua (AVEFA), Digitaria sanguinalis (DIGSA), Echinochloa crus-galli (ECHCG), Bassia scoparia (KCHSC), Lolium rigidum (LOLRI), Matricaria inodora (MATIN), Pharbitis purpurea (PHBPU), Polygonum convolvulus (POLCO), Setaria viridis (SETVI), Veronica persica (VERPE) and Viola tricolor (VIOTR) at an application rate of 320 g of active substance or less per hectare, and good crop plant compatibility in the case of organisms such as Oryza sativa (ORYSA), Zea mays (ZEAMX), Brassica napus (BRSNW), Glycine max (GLXMA) and Triticum aestivum (TRZAS) at an application rate of 320 g or less per hectare.

[1] = test system: Matricaria inodora (MATIN); settings: 320 g/ha, visual rating after about 3 weeks; for pest or weed control at 320 g/ha: Tripleurospermum inodorum, 504 h, read-out: Post-emergence effect at 320 g/ha against MATIN in %
Description: as §1, §2, §3

[2] = test system: Echinochloa crus-galli (ECHCG); settings: 320 g/ha, visual rating after about 3 weeks; for pest or weed control at 320 g/ha: Echinochloa crus-galli, 504 h, read-out: Post-emergence effect at 320 g/ha against ECHCG in %
Description: as §1, §2, §3

Viola tricolor (VIOTR) = settings: for pest or weed control at 80 g/ha / pest or weed control at 320 g/ha: Viola tricolor, 504 h, read-out: Post-emergence effect against VIOTR
Description: as §1, §2, §3

Setaria viridis (SETVI) = settings: visual rating after about 3 weeks; for pest or weed control at 320 g/ha: Setaria viridis, 504 h, read-out: Post-emergence effect at 320 g/ha against SETVI in %
Description: as §1, §2, §3

[3] = test system: Polygonum convolvulus (POLCO); settings: visual rating after about 3 weeks; for pest or weed control at 320 g/ha: read-out: Post-emergence effect at 320 g/ha against POLCO in %
Description: as §1, §2, §3

Bassia scoparia (KCHSC) = settings: Bassia scoparia, 504 h, 320 g/ha, read-out: Post-emergence effect against KCHSC
Description: as §1, §2, §3

[4] = test system: Amaranthus retroflexus (AMARE); settings: visual rating after about 3 weeks; for pest or weed control at 320 g/ha: read-out: Post-emergence effect at 320 g/ha against AMARE in %
Description: as §1, §2, §3

[5] = test system: Abutilon theophrasti (ABUTH); settings: visual rating after about 3 weeks; for pest or weed control at 320 g/ha: read-out: Post-emergence effect at 320 g/ha against ABUTH in %
Description: as §1, §2, §3

[6] = test system: Pharbitis purpurea (PHBPU); settings: visual rating after about 3 weeks; for pest or weed control at 320 g/ha / pest or weed control at 80 g/ha: Ipomoea purpurea, 504 h; for pest or weed control at 320 g/ha: read-out: Post-emergence effect at 320 g/ha against PHBPU in %; for pest or weed control at 80 g/ha: read-out: Post-emergence effect at 80 g/ha against PHBPU in %
Description: as §1, §2, §3

[7] = test system: Digitaria sanguinalis (DIGSA); settings: 320 g/ha, visual rating after about 3 weeks; for pest or weed control at 320 g/ha: Digitaria sanguinalis, 504 h, read-out: Post-emergence effect at 320 g/ha against DIGSA in %
Description: as §1, §2, §3

Lolium rigidum (LOLRI) = settings: Lolium rigidum, 504 h, 320 g/ha, visual rating after about 3 weeks, read-out: Post-emergence effect at 320 g/ha against LOLRI in %
Description: as §1, §2, §3

[8] = test system: Alopecurus myosuroides (ALOMY); settings: Alopecurus myosuroides, 504 h, 320 g/ha, visual rating after about 3 weeks, read-out: Post-emergence effect at 320 g/ha against ALOMY in %
Description: as §1, §2, §3

[9] = Fallopia convolvulus, 504 h, 320 g/ha
[10] = Abutilon theophrasti, 504 h, 320 g/ha
[11] = Amaranthus retroflexus, 504 h, 320 g/ha

SMILES | pest or weed control at 320 g/ha (Bassia scoparia (KCHSC)) [%] | pest or weed control at 320 g/ha (Lolium rigidum (LOLRI)) [%] | pest or weed control at 320 g/ha [1] [%] | pest or weed control at 320 g/ha [2] [%] | pest or weed control at 80 g/ha (Viola tricolor (VIOTR); 80 g/ha) [%] | pest or weed control at 320 g/ha (Viola tricolor (VIOTR); 320 g/ha) [%] | pest or weed control at 320 g/ha (Setaria viridis (SETVI); 320 g/ha) [%] | pest or weed control at 320 g/ha [3, 9] [%] | pest or weed control at 320 g/ha [5, 10] [%] | pest or weed control at 320 g/ha [7] [%] | pest or weed control at 320 g/ha [8] [%] | pest or weed control at 320 g/ha ([6]; 320 g/ha) [%] | also measured
COC(=O)C(Oc1nn(-c2ncccc2F)c(-c2ccc(F)nc2)c1Br)SC (single isomer, unassigned) [Example I-27] | 80 | – | – | – | – | – | – | – | – | – | – | – | Post-emergence effect at 320 g/ha against AVEFA in % (Avena fatua (AVEFA)): 90%; Post-emergence effect at 320 g/ha against MATIN in % [1]: 80%; Post-emergence effect at 320 g/ha against ECHCG in % [2]: 90%; Post-emergence effect against VIOTR (Viola tricolor (VIOTR); 80 g/ha): 80%; Post-emergence effect against VIOTR (Viola tricolor (VIOTR); 320 g/ha): 90%; Post-emergence effect at 320 g/ha against SETVI in % (Setaria viridis (SETVI); 320 g/ha): 90%; Post-emergence effect at 20 g/ha against POLCO in % ([3]; 20 g/ha): 80%; Post-emergence effect at 80 g/ha against POLCO in % ([3]; 80 g/ha): 80%; Post-emergence effect at 320 g/ha against POLCO in % ([3]; 320 g/ha): 90%; Post-emergence effect at 80 g/ha against AMARE in % ([4]; 80 g/ha): 80%; Post-emergence effect at 320 g/ha against AMARE in % ([4]; 320 g/ha): 80%; Post-emergence effect at 80 g/ha against ABUTH in % ([5]; 80 g/ha): 80%; Post-emergence effect at 320 g/ha against ABUTH in % ([5]; 320 g/ha): 90%; Post-emergence effect at 320 g/ha against PHBPU in % ([6]; 320 g/ha): 100%; Post-emergence effect at 320 g/ha against DIGSA in % [7]: 90%
CCOC(=O)C(Oc1nn(-c2ccccc2)c(-c2ccc(F)nc2)c1Br)SC (stereo not shown) [Example I-04] | – | 90 | 90 | 80 | 80 | 90 | 90 | 90 | 80 | 80 | – | – | pest or weed control at 80 g/ha ([3]; Fallopia convolvulus, 504 h, 80 g/ha, read-out: Post-emergence effect at 80 g/ha against POLCO in %): 80%
CCOC(=O)C(Oc1nn(-c2cnccn2)c(-c2ccc(F)nc2)c1Cl)SC (stereo not shown) [Example I-16] | – | – | – | 80 | – | – | – | 80 | – | – | 80 | 80 | –
CCOC(=O)C(Oc1nn(-c2ncccc2F)c(-c2ccc(F)nc2)c1Cl)SC (stereo not shown) [Example I-19] | – | 100 | 90 | 100 | 90 | 100 | 90 | 90 | 90 | 80 | – | 90 | pest or weed control at 320 g/ha (Avena fatua (AVEFA)): 100%; pest or weed control at 80 g/ha ([4]; Amaranthus retroflexus, 504 h, 80 g/ha, read-out: Post-emergence effect at 80 g/ha against AMARE in %): 80%; pest or weed control at 320 g/ha [4, 11]: 90%; pest or weed control at 80 g/ha [6]: 80%
CSC(Oc1nn(-c2cnccn2)c(-c2ccc(F)nc2)c1Br)C(=O)O (stereo not shown) [Example I-36] | 90 | – | – | – | – | 80 | – | 90 | 80 | – | 90 | 90 | –
CSC(Oc1nn(-c2cnccn2)c(-c2ccc(F)nc2)c1Cl)C(=O)O (stereo not shown) [Example I-37] | 90 | – | – | – | – | 80 | – | 90 | 80 | – | 90 | 90 | –
COC(=O)C(Oc1nn(-c2ccccc2F)c(-c2ccc(F)nc2)c1I)SC (stereo not shown) [Example I-52] | – | 100 | 80 | 90 | 80 | 90 | 90 | 90 | 80 | 80 | – | – | Post-emergence effect at 80 g/ha against SETVI in % (Setaria viridis (SETVI); 80 g/ha): 80%; pest or weed control at 320 g/ha [4, 11]: 90%
COC(=O)C(Oc1nn(-c2ncccc2F)c(-c2ccc(F)nc2)c1C1CC1)SC (stereo not shown) [Example I-59] | – | 90 | – | 90 | 80 | 80 | – | – | 90 | – | – | 90 | pest or weed control at 320 g/ha (Avena fatua (AVEFA)): 90%; pest or weed control at 80 g/ha ([5]; Abutilon theophrasti, 504 h, 80 g/ha, read-out: Post-emergence effect at 80 g/ha against ABUTH in %): 80%; pest or weed control at 80 g/ha [6]: 90%
